Source: patent publication US10806164B2 (priority 2016, dated 2020)
Marks after values point to notes of the source that are not given here.

How the values were obtained:
[1] = rat, in vivo
[2] = rat, in vivo; remark: listed apart in the source

Deoxynivalenol [DON]
Consumption food Means ± Standard error [1]: 511 ± 5.71 ^b | Effect on consumption of food [2]: affected the consumption of food | Food consumption Means ± standard error [2]: 569 ± 19.1 ^b | Food consumption from 0 to 7 days [2]: 98 ± 4.75 ^a | Food consumption from 7 to 14 days [2]: 109 ± 4.84 ^a | Food consumption from 14 to 21 days [2]: 109 ± 5.41 ^b | Food consumption from 21 to 28 days [2]: 121 ± 4.83 ^b | Food consumption from 28 to 35 days [2]: 132 ± 3.10 ^b | Food conversion Means ± standard error [2]: 5.22 ± 0.195 ^b | Gain of weight from 0 to 7 days [2]: 24 ± 2.45 ^b | Gain of weight from 7 to 14 days [2]: 24 ± 3.04 ^a | Gain of weight from 14 to 21 days [2]: 21 ± 2.92 ^a | Gain of weight from 21 to 28 days [2]: 13 ± 3.89 ^b | Gain of weight from 28 to 35 days [2]: 27 ± 3.63 ^a | Weight gain Means ± standard error [2]: 109 ± 6.61 ^b g
